Experimental data from paper PMC5442318, “Hundreds of dual-stage antimalarial molecules discovered by a functional gametocyte screen” (Nature Communications, 2017).
Read-outs that look alike come from different tables or passages of the source.

Tests used:
[1] = test system: P. falciparum stage V female gametocytes; assay: P. falciparum female gametocyte activation assay (Pf FGAA), 24 h or 48 h preincubation, Pfs25 expression readout; assay type: cell-based, Plasmodium falciparum NF54; settings: mean, read-out: Gametocytes mean Pf FGAA IC50
How it was run: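 Purified stage V gametocytes from P. falciparum NF54 gametocyte cultures were exposed to compounds for 24 h or 48 h at 37 °C under 3% O2/5% CO2, then activated by temperature drop plus xanthurenic acid. Activated females were stained with Cy3-anti-Pfs25 (0.5 μg ml^−1) for 24 h at 26 °C and counted by high-content imaging; pIC50 by nonlinear regression.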

[2] = test system: P. falciparum stages IV–V gametocytes; assay: Gametocytocidal ATP-depletion assay (gametocyte ATP bioluminescence); assay type: cell-based, Plasmodium falciparum
How it was run: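 Purified stage IV–V gametocytes (12,500/well) incubated with compound for 48 h at 37 °C under 3% O2/5% CO2. ATP measured by BacTiter-Glo luminescence as a viability surrogate; hits tested at 2 μM single concentration.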

[3] = test system: HepG2 cells; assay: HepG2 cytotoxicity assay; assay type: cell-based; settings: mean
How it was run: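 Steps: equilibrate plates and detection reagent at room temperature (30 min); dispense CellTiter-Glo; allow 10 min at room temperature; record luminescence.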

[4] = test system: P. falciparum asexual blood stages; settings: read-out: Pf Asexual blood stages XC50, cited from earlier work
[5] = TCAMS data, ref 1 (Gamo et al., 2010)
[6] = P. falciparum female gametocyte activation assay
[7] = TCAMS asexual blood stage data, ref 1 (Gamo, F. J. et al., Nature 465, 305-310, 2010)

| IC50 [1] [nM] | IC50 [1, 6] [nM] | SMILES | Gametocytes mean ATP inhibition at 2µM (%) [2] [%] | HepG2 cells mean TOX50 [3] [µM] | IC50 [4, 5] [nM] | Gametocytes mean ATP inhibition at 2µM [2] [%] | HepG2 cells mean TOX50 ([3]; HepG2 cells) [µM] | IC50 [4, 7] [nM] |
| --- | --- | --- | --- | --- | --- | --- | --- | --- |
| 1390 | – | CCOc1ccccc1CCNC(C)Cc1ccc(C(=O)Nc2ccc(CC(C)NCCc3cccc(Cl)c3)cc2)cc1 (stereo not drawn) [TCMDC-139805] | 17.68 | 3.24 | 540 | – | – | – |
| 1860 | – | CCCCCCCN1CC[C@@H](CCCc2ccnc3ccc(OCCN4CCNCC4)cc23)[C@@H](CC)C1.Cl [TCMDC-139817] | 8.71 | 4.90 | 770 | – | – | – |
| 1120 | – | CC(Cc1ccc(NC(=O)c2ccc(CNCCCCc3ccccc3)cc2)cc1)NCCc1cccc(Cl)c1.Cl (stereo not drawn) [TCMDC-139866] | 18.31 | 1.97 | 330 | – | – | – |
| 2070 | – | CC(Cc1ccc(NC(=O)c2ccc(CNCCc3ccccc3)cc2)cc1)NCCc1cccc(Cl)c1.Cl (stereo not drawn) [TCMDC-139867] | 10.73 | 4.17 | 350 | – | – | – |
| 1830 | – | Cc1oc(-c2ccc(Cl)cc2)cc1C(=O)NCCC1CCN(CCCCCNC(=O)/C=C/c2ccc(Cl)c(Cl)c2)CC1 [TCMDC-140009] | -9.24 | 3.31 | 450 | – | – | – |
| 1770 | – | Nc1ccc2[nH]cc(C3CCN(CC4CCN(C(=O)/C=C/c5ccc(Cl)c(Cl)c5)CC4)CC3)c2n1 [TCMDC-140061] | -11.61 | 5.89 | 700 | – | – | – |
| 1290 | – | Nc1ccc2[nH]cc(C3CCN(CCC4CCN(C(=O)/C=C/c5ccc(Cl)c(Cl)c5)CC4)CC3)c2n1 [TCMDC-140062] | -11.87 | 8.13 | 740 | – | – | – |
| 870 | – | O=C(/C=C/c1ccc(Cl)c(Cl)c1)N1CCC(CN2CCC(c3c[nH]c4ccncc34)CC2)CC1 [TCMDC-140074] | -2.94 | 5.32 | 730 | – | – | – |
| 1580 | – | CN(CCCCN)Cc1ccc(-c2ccc(Cl)cc2)cc1 [TCMDC-140123] | 17.75 | 3.55 | 880 | – | – | – |
| 1970 | – | Nc1cc2c(C3CCN(CC4CCN(C(=O)/C=C/c5ccc(Cl)c(Cl)c5)CC4)CC3)c[nH]c2cn1 [TCMDC-140133] | -6.84 | 6.24 | 980 | – | – | – |
| 1910 | – | CN1CCN(CCCNCc2cccc(-c3ccc(CNCCc4ccccc4)cc3)c2)CC1 [TCMDC-140643] | 22.49 | 7.92 | 780 | – | – | – |
| 860 | – | COc1cc(NCCCNCc2cn(Cc3cc(Br)cc(Br)c3)c3ccccc23)nc2ccccc12 [TCMDC-140677] | 11.13 | 3.94 | 190 | – | – | – |
| 1210 | – | CCN(CC)CCN(Cc1ccc(-c2ccc(C(F)(F)F)cc2)cc1)C(=O)Cn1cc(Cc2cnn(C)c2)c(=O)nc1/C=C/c1ccc(F)cc1.O=C(O)C(O)C(O)C(=O)O [TCMDC-140741] | 46.80 | 13.81 | 1060 | – | – | – |
| 1920 | – | CC(C)(C)c1ccc(CNC(=O)/C=C/c2ccc(CNC3CCNCC3)cc2)cc1 [TCMDC-140773] | 8.96 | 9.47 | 1090 | – | – | – |
| 2000 | – | CC(C)(C)c1ccc(CNC(=O)c2cc(CNC3CCNCC3)ccc2O)cc1 [TCMDC-140775] | -11.19 | 13.96 | 710 | – | – | – |
| 2440 | – | CC(C)(C)c1ccc(CNC(=O)c2ccc(CNC3CCC(N)CC3)s2)cc1 (stereo not drawn) [TCMDC-140777] | 10.64 | 8.95 | 530 | – | – | – |
| – | 870 | CCN(CC)CCN(Cc1ccc(-c2ccc(C(F)(F)F)cc2)cc1)C(=O)Cn1cc(Cc2cnn(C)c2)c(=O)nc1/C=C/c1cccc(F)c1F [TCMDC-140964] | – | – | – | 69.60 | 9.69 | 960 |
| – | 1210 | CC(C)(CNC(=O)[C@H]1CCCN1)c1nc(-c2ccc(Cl)c(O)c2)c(-c2ccncc2)[nH]1.Cl [TCMDC-141060] | – | – | – | -7.23 | 32.74 | 1270 |
| – | 1730 | CC1(CCN2CCC(c3c[nH]c4cnccc34)CC2)CCCc2c(Br)cccc2C1=O.Cl (stereo not drawn) [TCMDC-141171] | – | – | – | 10.47 | 5.25 | 190 |
| – | 420 | CC(C)(CN)c1cc(-c2ccc(Cl)c(O)c2)c(-c2ccncc2)o1.Cl [TCMDC-141334] | – | – | – | -5.00 | 9.98 | 1140 |
| – | 200 | ON=C1CCc2cc(-c3cc(-c4ccc(OC5CCNCC5)cc4)oc3-c3ccncc3)ccc21 [TCMDC-141381] | – | – | – | 40.68 | 5.01 | 160 |
| – | 1700 | O=C(Nc1ccc(Cl)cc1)c1cc(Cl)cc2nc(C(F)(F)F)[nH]c12 [TCMDC-141586] | – | – | – | 39.06 | 2.82 | 130 |
| – | 2000 | Cl.O=S(=O)(Nc1cc2c(cc1OCCCN1CCCCC1)CCNCC2)c1ccc(-c2ccc(Cl)cc2)cc1 [TCMDC-141753] | – | – | – | -0.045 | 4.37 | 1010 |
| – | 970 | CN1CCc2cc(NS(=O)(=O)c3ccc(-c4ccc(Cl)cc4)cc3)c(OCCCN3CCCCC3)cc2CC1.Cl [TCMDC-141754] | – | – | – | 6.66 | 2.23 | 960 |
| – | 1730 | Cc1ccc(Cn2ncc(N3CCCNCC3)c(Cl)c2=O)cc1NC(=O)Nc1ccc(-c2ccccc2)cc1 [TCMDC-141924] | – | – | – | -4.47 | 7.86 | 630 |

| SMILES | IC50 [1] [nM] | IC50 [1, 6] [nM] | Gametocytes mean ATP inhibition at 2µM (%) [2] [%] | HepG2 cells mean TOX50 [3] [µM] | IC50 [4, 5] [nM] | Gametocytes mean ATP inhibition at 2µM [2] [%] | HepG2 cells mean TOX50 ([3]; HepG2 cells) [µM] | IC50 [4, 7] [nM] |
| --- | --- | --- | --- | --- | --- | --- | --- | --- |
| CC(Cc1ccc(OCCCCOc2ccccc2)cc1)NCCC1CCCN1C (stereo not drawn) [TCMDC-140017] | 200 | – | 85.16 | 1.12 | 40 | – | – | – |
| COc1ccc(-c2ccccc2)cc1NC(=S)NC1CCC(CN2CCC(c3c[nH]c4ccccc34)CC2)CC1 (stereo not drawn) [TCMDC-140182] | 1650 | – | 21.09 | 5.50 | 650 | – | – | – |
| CC(C)(CN)c1nc(-c2ccc(Cl)c(O)c2)c(-c2ccncc2)[nH]1.Cl [TCMDC-140369] | 940 | – | -0.49 | 2.16 | 760 | – | – | – |
| CN1CCN(CCCN(Cc2cccc(-c3ccc(CNC4CCCC4)cc3)c2)C(=O)/C=C/c2ccccc2)CC1.O=C(O)C(F)(F)F [TCMDC-140544] | 1360 | – | 0.64 | 7.70 | 750 | – | – | – |
| CN1CCN(CCCN(Cc2cccc(-c3ccc(CNCCc4ccccc4)cc3)c2)C(=O)c2cccs2)CC1.O=C(O)C(F)(F)F [TCMDC-140568] | 1710 | – | -8.58 | 5.98 | 720 | – | – | – |
| CN(C)CCCOc1ccc(CN2CCC(c3c[nH]c4ccc(NCC5CCCCC5)cc34)CC2)cc1.O=C(O)C(F)(F)F [TCMDC-140737] | 560 | – | -13.51 | 5.48 | 680 | – | – | – |
| CN1CCN(c2ccc(Nc3ncc([N+](=O)[O-])c(Nc4ccccc4O)n3)cc2)CC1.O=C(O)C(F)(F)F [TCMDC-141372] | – | 2010 | – | – | – | -21.03 | 1.82 | 720 |
| CN1CCCC1CCNc1ncc2c(-c3ccc(NC(=O)Nc4cc(C(F)(F)F)ccc4F)c(F)c3)nn(C)c2n1.O=C(O)C(F)(F)F (stereo not drawn) [TCMDC-141610] | – | 1470 | – | – | – | -9.33 | 4.62 | 290 |
| Cc1ccc(Cn2nc(Cl)c(N3CCCNCC3)cc2=O)cc1NC(=O)Nc1ccc(-c2ccccc2)cc1.O=C(O)C(F)(F)F [TCMDC-141697] | – | 990 | – | – | – | -13.94 | 7.25 | 670 |
| Cc1c(Cn2nc(Cl)c(N3CCNCC3)cc2=O)cccc1NC(=O)Nc1ccc(-c2ccccc2)cc1.O=C(O)C(F)(F)F [TCMDC-141699] | – | 4910 | – | – | – | -8.75 | 4.22 | 1380 |
| Cc1cc(F)ccc1-c1nc(NCCCNCCc2ccccc2)nc2c1ccc(=O)n2-c1c(F)cccc1F.O=C(O)C(F)(F)F [TCMDC-141804] | – | 3610 | – | – | – | 82.21 | 12.59 | 190 |
